Results as given in publication PMC10120551, “Novel Glu-based pyrazolo[3,4-d]pyrimidine analogues: design, synthesis and biological evaluation as DHFR and TS dual inhibitors” (Journal of Enzyme Inhibition and Medicinal Chemistry, 2023).

Key:
OVCAR-3 = test: cells; conditions: Homo sapiens
Renal cancer subpanel = test: NCI five-dose screen, subpanel MG-MID; assay type: cell-based, human
Experimental: (§1) (Figures S53–S56 in Supporting Information). This assay evaluates GI50, TGI, and LC50 parameters, as cited in Table 1. Their values correspondingly represent the GI level, cytostatic impact, and cytotoxicity parameter. Furthermore, based on the GI50 values, the mean graph midpoints (MG-MID) for both full NCI 59 cell panel and subpanel cancer cell lines were evaluated, affording a median potency parameter for the examined compound 6i, as depicted in Table 2.
(§2) Moreover, the selectivity index (SI) of the most efficient analogue 6i was calculated from the division of full-panel MG-MID by subpanel MG-MID. A value greater than 6 implies high selectivity, whereas a ratio from 3 to 6 denotes moderate selectivity. Otherwise, the compound is referred to as non-selective.[24] […] Therefore, the outstanding anti-cancer profile of compound 6i against the herein examined NCI-59 cell panels inspired us to explore its mechanism of action further.
(§3) The designed analogues were submitted to NCI-Chemotherapeutic Agents Repository (MD, USA) for screening on a panel of 59 cancer cell lines. All compounds were initially examined at 10 µM concentration (Single-Dose Screen), and then the most efficient analogue 6i was screened further at 0.01–100 µM (Five-Dose Screen). The screening procedures were performed according to NCI-Drug Evaluation Branch protocol using SRB protein assay, as described previously[21]^,[66]. The experimental procedures were detailed in the Supporting Information.

CNS cancer subpanel = test: NCI five-dose screen, subpanel MG-MID; assay type: cell-based, human
Experimental: as §1, §2, §3

[1] = tested on: Non-small cell lung cancer subpanel; test: NCI five-dose screen, subpanel MG-MID; assay type: cell-based, human
Experimental: as §1, §2, §3

Leukaemia subpanel = test: NCI five-dose screen, subpanel MG-MID; assay type: cell-based, human
Experimental: as §1, §2, §3

Colon cancer subpanel = test: NCI five-dose screen, subpanel MG-MID; assay type: cell-based, human
Experimental: as §1, §2, §3

Prostate cancer subpanel = test: NCI five-dose screen, subpanel MG-MID; assay type: cell-based, human
Experimental: as §1, §2, §3

Breast cancer subpanel = test: NCI five-dose screen, subpanel MG-MID; assay type: cell-based, human
Experimental: as §1, §2, §3

Melanoma subpanel = test: NCI five-dose screen, subpanel MG-MID; assay type: cell-based, human
Experimental: as §1, §2, §3

Ovarian cancer subpanel = test: NCI five-dose screen, subpanel MG-MID; assay type: cell-based, human
Experimental: as §1, §2, §3

HCT-116 = test: cells; conditions: Homo sapiens
RXF 393 = test: cells; conditions: Homo sapiens
HCC-2998 = conditions: HCC-2998, Colon cancer; five-dose 0.01–100 µM
ACHN [2] = conditions: Renal cancer, five-dose 0.01–100 µM
UACC-62 = conditions: UACC-62, Melanoma; five-dose 0.01–100 µM
HS 578 T [3] = conditions: Breast cancer, five-dose 0.01–100 µM
MALME-3M = test: cells; conditions: Homo sapiens
UACC-257 = conditions: UACC-257, Melanoma; five-dose 0.01–100 µM
M14 = conditions: M14, Melanoma; five-dose 0.01–100 µM
HCT-15 = conditions: HCT-15, Colon cancer; five-dose 0.01–100 µM
SF-539 = conditions: SF-539, CNS cancer; five-dose 0.01–100 µM
OVCAR-8 = test: cells; conditions: Homo sapiens
ACHN [4] = test: cells; conditions: Homo sapiens
HS 578 T [5] = test: cells; conditions: Homo sapiens
SW-620 = conditions: SW-620, Colon cancer; five-dose 0.01–100 µM
CCRF-CEM = conditions: Leukaemia, five-dose 0.01–100 µM
TK-10 = conditions: TK-10, Renal cancer; five-dose 0.01–100 µM
SK-OV-3 = conditions: SK-OV-3, Ovarian cancer; five-dose 0.01–100 µM
LOX IMVI = conditions: Melanoma, five-dose 0.01–100 µM
SK-MEL-5 = test: cells; conditions: Homo sapiens
MDA-MB-435 = conditions: MDA-MB-435, Melanoma; five-dose 0.01–100 µM
U251 = conditions: U251, CNS cancer; five-dose 0.01–100 µM

Molecule `CCOC(=O)CC[C@H](NC(=O)c1ccc(NC(=O)Cn2cnc3c(c(C)nn3-c3ccc(Br)cc3)c2=O)cc1)C(=O)OCC` [Compound 6i] has a GI50 (OVCAR-3; OVCAR-3) of 11.7 µM, a CC50 (OVCAR-3; OVCAR-3, read-out: LC50) greater than 100 µM and an MG-MID (Renal cancer subpanel; Renal cancer subpanel, based on GI50) of 19.19 µM. It also gave a Selectivity index (Renal cancer subpanel; Renal cancer, full-panel MG-MID / subpanel MG-MID) of 1.06, an MG-MID (CNS cancer subpanel; CNS cancer subpanel, based on GI50) of 12.70 µM and a Selectivity index (CNS cancer subpanel; CNS cancer, full-panel MG-MID / subpanel MG-MID) of 1.61. For the same molecule, the MG-MID ([1]; Non-small cell lung cancer subpanel, based on GI50) was 10.62 µM, the Selectivity index ([1]; Non-small cell lung cancer, full-panel MG-MID / subpanel MG-MID) was 1.92 and the MG-MID (Leukaemia subpanel; Leukaemia subpanel, based on GI50) was 68.03 µM. The Selectivity index (Leukaemia subpanel; Leukaemia, full-panel MG-MID / subpanel MG-MID) was 0.30, the MG-MID (Colon cancer subpanel; Colon cancer subpanel, based on GI50) was 18.34 µM and the Selectivity index (Colon cancer subpanel; Colon cancer, full-panel MG-MID / subpanel MG-MID) was 1.11. It also gave an MG-MID (Prostate cancer subpanel; Prostate cancer subpanel, based on GI50) of 6.63 µM, a Selectivity index (Prostate cancer subpanel; Prostate cancer, full-panel MG-MID / subpanel MG-MID) of 3.08 and an MG-MID (Breast cancer subpanel; Breast cancer subpanel, based on GI50) of 15.29 µM. For the same molecule, the Selectivity index (Breast cancer subpanel; Breast cancer, full-panel MG-MID / subpanel MG-MID) was 1.33, the MG-MID (Melanoma subpanel; Melanoma subpanel, based on GI50) was 16.8 µM and the Selectivity index (Melanoma subpanel; Melanoma, full-panel MG-MID / subpanel MG-MID) was 1.21. For the same molecule, the MG-MID (Ovarian cancer subpanel; Ovarian cancer subpanel, based on GI50) was 16.52 µM, the Selectivity index (Ovarian cancer subpanel; Ovarian cancer, full-panel MG-MID / subpanel MG-MID) was 1.23 and the GI50 (HCT-116; HCT-116) was 9.85 µM. The CC50 (HCT-116; HCT-116, read-out: LC50) was greater than 100 µM, the GI50 (RXF 393; RXF 393) was 15.9 µM and the CC50 (RXF 393; RXF 393, read-out: LC50) was greater than 100 µM. It also gave a TGI (HCC-2998) greater than 100 µM, a TGI (ACHN [2]) of 34.3 µM and a TGI (UACC-62) of 32.1 µM. It also gave a TGI (HS 578 T [3]) of 45.7 µM, a GI50 (MALME-3M) of 15 µM and a CC50 (MALME-3M; read-out: LC50) of 59.4 µM. The TGI (UACC-257) was greater than 100 µM, the TGI (M14) was greater than 100 µM and the TGI (HCT-15) was greater than 100 µM. It also gave a TGI (SF-539) of 33.0 µM, a GI50 (OVCAR-8; OVCAR-8) of 8.17 µM and a CC50 (OVCAR-8; OVCAR-8, read-out: LC50) greater than 100 µM. It also gave a GI50 (ACHN [4]) of 15.1 µM, a CC50 (ACHN [4]; read-out: LC50) of 78.3 µM and a GI50 (HS 578 T [5]) of 12.7 µM. The CC50 (HS 578 T [5]; read-out: LC50) was greater than 100 µM, the TGI (SW-620) was 44.4 µM and the TGI (CCRF-CEM) was greater than 100 µM. For the same molecule, the TGI (TK-10) was 86.2 µM, the TGI (SK-OV-3) was 67.3 µM and the TGI (LOX IMVI) was 20.6 µM. For the same molecule, the GI50 (SK-MEL-5; SK-MEL-5) was 19.4 µM, the CC50 (SK-MEL-5; SK-MEL-5, read-out: LC50) was 95.8 µM and the TGI (MDA-MB-435) was 34.3 µM. The TGI (U251) was greater than 100 µM.
